One experiment deals with S6 kinase (S6K). In words: S6K phosphorylation in naive CBir1Tg CD4+ T cells co-cultured with APCs and MEP1. In kind it is cell-based, mouse. As to conditions: 100 nM rapamycin, APCs and MEP1, 20 hrs. On the procedure: (§1) CBir1Tg CD4^+CD44-naïve T cells were isolated from the spleen and co-cultured with irradiated antigen-presenting-cells (APCs) isolated from C57BL/6 mice, in the presence of 1 μg/ml of MEP1 with (blue) or without (red) 100 nM rapamycin. Phosphorylation of S6K in CBir1Tg CD4^+ T cells was examined after 20 hrs of stimulation. CBir1Tg CD4^+ T cell viability, uptake of fluorescent glucose analog 2-NBDG, proliferation, and Treg induction were determined with FACS after 90 hrs of co-culture. OVA p323-339 stimulation was used as a negative control (grey). Representative flow plots are shown in (A-D, and I), and statistics of 3 replicated experiments are shown in (E-H, and J). For in vitro and in vivo suppression assays, naïve CD4+ cells were isolated from CBir1Tg·Foxp3gfp spleen and cultured with MEP1 and rapamycin for 6 days for Treg induction. Then live CD4^+CD25^+GFP^+ Treg cells were sorted with flow cytometry as CBir1Tg iTreg Rapa. Live CD4^+CD25^+GFP^+ cells freshly isolated from naïve CBir1Tg·Foxp3gfp spleen were used as control (CBir1Tg tTreg) for suppression assay in vitro. CFSE labeled responder CD4+CD44-(Tn) cells were isolated from congenic CBir1Tg or C57BL/6 mouse and co-cultured with indicated ratios of CBir1Tg Treg cells in the presence of 1 μg/ml MEP1 or anti-mouse-CD3 and APCs for 3.5 days. […]

Experiment [1] relates to CBir1Tg CD4+CD44- naive T cells. Put plainly: Naive CBir1Tg CD4+ T cell glucose uptake, viability, proliferation and Treg induction in vitro. In kind it is cell-based, mouse. On the procedure:
as §1, with “CBir1Tg CD4^+ T cell viability, uptake of fluorescent glucose analog 2-NBDG, proliferation, and Treg induction were determined with FACS after 90 hrs of co-culture.” left out, “days. Representative graphs of antigen-specific and bystander suppression are shown in (K and M), respectively, and accumulated percentage of suppression are shown in (L and N).” for “days.”

Experiment [2] has as its system ribosomal protein S6 kinase. Put plainly: S6K phosphorylation in flagellin-specific CD4+ T cells from Crohn's patients. The format is cell-based, human. As to conditions: re-stimulation with pooled flagellin.
Description: (§3) Microbiota flagellin-specific CD4^+ T cells were labeled with proliferation dye and re-stimulated with autologous APCs plus Fla mix in the presence of 50 nM rapamycin, 1 mM metformin, or both. Phosphorylation of S6K was examined after 6 hours of stimulation (H and K), whereas CD4^+ T cell survival (I and L) and proliferation (J and M) were examined after 6-7 days.
(§4) Therefore, in order to target the metabolism of both naïve and memory CD4+ subsets, rapamycin, metformin, or both were tested, for their inhibitory effects on these cells post expansion.
Therefore, in order to target the metabolism of both naïve and memory CD4^+ subsets, rapamycin, metformin, or both, were tested for their inhibitory effects on these cells post expansion.
Experiment [3] deals with microbiota flagellin-specific CD4+ T cells. Put plainly: Survival, proliferation and cytokine production of flagellin-specific CD4+ T cells from Crohn's patients. Particulars: for Cytokine production (IFNγ, TNFα and IL-17A) upon re-stimulation: 6-7 hours re-stimulation with APCs and Fla mix.
Description: as §3
Expanded CD154^+ antigen-specific CD4^+ T cells were re-stimulated with autologous APCs and Fla mix, Fla mix with rapamycin, Fla mix with metformin, or Fla mix with rapamycin and metformin for 6-7 hours, with BFA added for the last 4 hours. CD4^+ T cells stimulated with CD3/CD28 beads were used as a positive control, whereas cells with no antigen added were used as a negative control. The cells were then stained for cytokines (TNF and IL-17A), activation of mTOR via the downstream marker phospho-S6K and analyzed by flow cytometry.
as §4
The next experiment has as its target DR0701 (HLA-DR7). In words: Flagellin peptide binding to HLA-DR (DR0701). Further details: species or system human. As to conditions: <20 = high affinity, 20-100 moderate affinity. The text has this: (§2) CD4+ T cell effectors mediate colitis in mouse models. These effectors, for example, Th1 and Th17 are short-lived. The CD4+ T cell memory pool is a reservoir of chronicity and regenerating T effector cells. CD4+ TM cells are widely distributed in CBir1 TCR Tg mice (FIG. 1). Flagellin specific T cells can cause murine colitis, mainly Th17 mediated. Anti-CBir1 was detected in 50% of Crohn's patients and in multiple mouse models. The presence of anti-Cbir1 in CD patients is associated with small bowel (SB) involvement, fibrostenosis and internal perforating phenotypes, independent of anti-Saccharomyces cerevisiae antibodies (ASCA), anti-[…] antibodies and anti-OmpC antibodies. A subset of Crohn's patients has broad IgG reactivity to microbiota flagellins (FIG. 2). Flagellins have promiscuous T cell receptor epitopes. Therefore, whether microbiota flagellins contain epitope peptides that are broadly reactive in humans and can stimulate both TM and Tregs across a population of patients with Crohn's disease was studied. Peptides predicted to bind to 8 or more HLA-DRB1 molecules and to mouse H-2^b or H-2^d were studied. Thirty predicted flagellin epitopes were tested for binding to the four most common HLA-DR dimers (HLA-DR3, HLA-DR7, HLA-DR11 and HLA-DR15). All predicted flagellin epitopes bound at least one of the four HLA-DR dimers, and twenty of the predicted epitopes bound two or more.

The next experiment concerns the target DR1501 (HLA-DR15) (Homo sapiens, UniProt P01903+P01911). Put plainly: Flagellin peptide binding to HLA-DR (DR1501). As to conditions: <20 = high affinity, 20-100 moderate affinity.
Description: as §2

The test system of experiment [4] is CBir1Tg CD4+CD44+ TM cells. Put plainly: CBir1Tg CD4+ TM cells co-cultured with APCs and MEP1 in vitro. In kind it is cell-based, mouse.
Description: (§5) (A) CBir1Tg CD4^+CD44^+ TM cells were isolated from the spleen, labeled with CFSE, and co-cultured with irradiated APCs isolated from C57BL/6 mice in the presence of 1 μg/ml of MEP1, and 100 nM rapamycin, 1 mM metformin, or both. Absolute numbers of live and proliferating CD4^+ T cells post 90 hrs of culturing are shown respectively. OVA p323-339 stimulation was used as negative control. (B) Strategy of adoptive transfer, immunization, and ablation of donor CD4^+ TM cells. […] Mice without challenge and mice treated with 0.2% CMC post challenge were used as controls. Lymphocytes were isolated from the spleen on Day 42 and analyzed with FACS. Representative plots of donor/host CD4^+, donor CD4^+ TM, Treg, and Tfh are shown in (C), whereas statistics of corresponding absolute numbers are shown in (D-G).
(§6) This was tested in vivo by targeting established microbiota antigen-specific CD4+ TM cells in the periphery. […] Upon antigen challenge, on days 28 and 35, recipient mice were treated with metformin, rapamycin, the combination of both, or drug vehicle for 5 consecutive days, respectively. Recipient mice with immunization but no antigen challenge were used as controls (FIG. 10B). Assessed by the absolute numbers recovered from the spleen.
The subject of experiment [5] is donor CBir1Tg CD4+ TM cells. Put plainly: Ablation of pre-existing antigen-specific CD4+ TM cells in C57BL/6 mice upon MEP1 challenge. The format is in vivo, mouse. Particulars: rapamycin 1 μg/g/day, metformin 150 μg/g/day i.p. 5 days after MEP1 challenge days 28 and 35; day 42.
Description: as §5, §6
In another experiment the target is DR1101 (HLA-DR11) (Homo sapiens, UniProt P01903+P01911, A100R/A169T/A87E/I96F/K41T/L162R/M171V/P40S/Q125H/Q178H/Q39Y/Q99D/R42S/S66Y/T262R/V115G/W38E). Put plainly: Flagellin peptide binding to HLA-DR (DR1101). Particulars: <20 = high affinity, 20-100 moderate affinity.
Chain of DR1101 (HLA-DR11) (P01903 26-254, other chains not shown): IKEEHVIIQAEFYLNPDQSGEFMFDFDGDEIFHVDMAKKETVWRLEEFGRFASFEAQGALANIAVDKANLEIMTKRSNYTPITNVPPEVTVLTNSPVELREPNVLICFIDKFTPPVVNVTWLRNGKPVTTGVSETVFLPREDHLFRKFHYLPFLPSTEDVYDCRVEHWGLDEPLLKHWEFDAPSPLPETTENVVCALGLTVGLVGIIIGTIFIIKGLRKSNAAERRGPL
Description: as §2

`CO[C@H]1C[C@@H]2CC[C@@H](C)[C@@](O)(O2)C(=O)C(=O)N2CCCC[C@H]2C(=O)O[C@H]([C@H](C)C[C@@H]2CC[C@@H](O)[C@H](OC)C2)CC(=O)[C@H](C)/C=C(\C)[C@@H](O)[C@@H](OC)C(=O)[C@H](C)C[C@H](C)/C=C/C=C/C=C/1C` [rapamycin]: the “Reduction of phosphorylation of S6 kinase (S6K)” value with S6 kinase (S6K) is on record as “roughly 60%”. Moreover, the “Reduction of cell proliferation” value in experiment [1] (100 nM rapamycin, in presence of cognate antigen MEP1, 90 hrs) is recorded as “roughly 10 fold”. Besides, in experiment [1] (MEP1 and rapamycin vs MEP1 alone), the “Increase of Treg cells in percentage” value is 20 fold. For the same molecule, in experiment [2] (50 nM rapamycin, 6 hours), the “Reduction of phosphorylation of S6K compared to antigen alone” value is reported as about 50%. Besides, in experiment [3], the “Cytokine production (IFNγ, TNFα and IL-17A) upon re-stimulation” value is reported as “no effect”.
Turning to MATEMVKYSNANILSQAGQ [CBir1 p456-475], the entries for the “EC50 Ratio” value on DR0701 (HLA-DR7) and in the experiment with DR1501 (HLA-DR15) were 3.7 and 0.32, respectively.
Regarding “MVVQHNLRAMNSNRMLGITQ [FlaX p1-20, Lachnospiraceae FlaX flagellin peptide 1-20]”, the “EC50 Ratio” value with DR1501 (HLA-DR15) worked out at 0.33.
As for `CN(C)C(=N)N=C(N)N` [metformin], in experiment [4], the “Cell death / survival and inhibition of cell proliferation of CD4+ TM cells” value is reported as “comparable effect, or even worse, than rapamycin”. For the same molecule, the “Expansion of CBir1Tg CD4+ cells after antigen challenge (absolute numbers in spleen)” value in experiment [5] is “no inhibitory result”. In [2] (1 mM metformin alone), the “Inhibitory effect on the mTOR pathway” value is recorded as “no inhibitory effect”. The Cell death entry in experiment [3] (50 nM rapamycin or 1 mM metformin, 6-7 days) is “lesser extent of increased cell death”. In addition, the Cell proliferation result in experiment [3] (50 nM rapamycin, 1 mM metformin, or both, 6-7 days) is “decreased proliferation”. Further, the “Cytokine production (IFNγ, TNFα and IL-17A) upon re-stimulation” value in [3] is given as “neither rapamycin or metformin treatment altered the cytokine production”.
“MVVQHNLRAMNANRMLGIT [A4 Fla3 p1-19, Lachnospiraceae A4 Fla3 flagellin peptide 1-19]”: the “EC50 Ratio” value on DR0701 (HLA-DR7) is listed as 2.5; with DR1101 (HLA-DR11), 0.2; with DR1501 (HLA-DR15), 0.32.

Values taken from patent US12350317B2, “Immunotherapy for the treatment and prevention of inflammatory bowel disease” (THE UAB RESEARCH FOUNDATION, priority 2019, dated 2025).
